pIC50: −log10 of the molar value. “Also recorded” adds a separate entry of the source.
How the values were obtained:
Src = Src (Homo sapiens, UniProt P12931); details: sources as Table 1 footnote; cited from earlier work
[1] = system: human pterygium epithelial cells (hPECs); experiment: Human pterygium mouse model, corneal pterygium lesion size; details: vs day 7 baseline; 0.2% nintedanib, 0.05% sunitinib, 0.002% mitomycin or combination
[2] = system: corneal neovascularization (NV); experiment: Human pterygium mouse model, corneal neovascularization score; format: in vivo, athymic nude mice; details: vs day 7 baseline, score 0 through 3, 0.2% nintedanib, 0.05% sunitinib, 0.002% mitomycin or combination
[3] = system: suture-induced neovascularization in the rabbit cornea; experiment: Rabbit cornea suture model of neovascularization; format: in vivo
Experimental: The rabbit cornea suture model was established to assess drug effects on cornea neovascularization (Ko et al. Cornea. 2013; 32(5): 689-695; Perez-Santonj a et al. Am J Ophthalmol. 2010; 150(4):519-528). […] Thirty six female Zealand White rabbits were used to perform the study. […] The animals were treated in both eyes as described in Table 4. [table] During the study, the animals were closely observed for various ocular indications as well as general physical conditions including body weight. […] NIH ImageJ® software was used to analyze the ocular images. Each image was opened in ImageJ®, the scale was calibrated using the ruler in the photograph and the neovascularized area on the cornea near the suture was selected by the selection tool. […] The results were plotted as histograms of average with standard deviation for easy comparison.

[4] = rabbit, in vivo
[5] = rabbits with corneal sutures dosed with sunitinib for 7 days (Perez-Santonja 2010); cited from earlier work
[6] = 0.05% BID topical, Day 10 (after 2 days of treatment)
[7] = 0.05% BID topical, Day 12 (after 4 days of treatment)
[8] = 0.05% BID topical, Day 14 (after 6 days of treatment)
[9] = 0.05% TID topical, Day 10 (after 2 days of treatment)
[10] = 0.05% TID topical, Day 12 (after 4 days of treatment)
[11] = 0.05% TID topical, Day 14 (after 6 days of treatment)
[12] = 0.2% BID topical, Day 10 (after 2 days of treatment)
[13] = 0.2% BID topical, Day 12 (after 4 days of treatment)
[14] = 0.2% BID topical, Day 14 (after 6 days of treatment)
[15] = 0.2% TID topical, Day 10 (after 2 days of treatment)
[16] = 0.2% TID topical, Day 12 (after 4 days of treatment)
[17] = 0.2% TID topical, Day 14 (after 6 days of treatment)

Chain of Src (P12931 whole entry, species assumed): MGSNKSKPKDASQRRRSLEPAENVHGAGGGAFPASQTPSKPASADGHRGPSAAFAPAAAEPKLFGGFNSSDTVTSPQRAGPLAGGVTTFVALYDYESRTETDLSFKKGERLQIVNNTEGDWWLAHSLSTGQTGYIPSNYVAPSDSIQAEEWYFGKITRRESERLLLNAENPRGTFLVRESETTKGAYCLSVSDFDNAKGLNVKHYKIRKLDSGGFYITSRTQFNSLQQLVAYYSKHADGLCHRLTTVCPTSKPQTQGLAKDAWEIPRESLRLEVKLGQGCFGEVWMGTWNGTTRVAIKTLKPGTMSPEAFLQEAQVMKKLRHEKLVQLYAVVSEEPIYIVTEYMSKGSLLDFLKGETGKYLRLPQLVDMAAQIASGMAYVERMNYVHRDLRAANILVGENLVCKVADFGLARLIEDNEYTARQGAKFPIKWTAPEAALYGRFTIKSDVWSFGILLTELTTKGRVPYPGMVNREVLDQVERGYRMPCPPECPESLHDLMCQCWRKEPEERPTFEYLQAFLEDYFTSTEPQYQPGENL

COc1cc2c(Oc3ccc4[nH]c(C)cc4c3F)ncnc2cc1OCCCN1CCCC1 [Cediranib]
pIC50 (Src): 6.89

CO[C@@]12[C@H](COC(N)=O)C3=C(C(=O)C(C)=C(N)C3=O)N1C[C@@H]1N[C@@H]12 [MMC]
Effect on pterygium lesion area on mouse cornea (in words) [1]: showed a trend of reduction in pterygium areas but didn't reach statistical significance at any of the time points; also recorded: showed a trend of reduction of pterygium lesion area but the differences at each time points from the day 7 baseline are not statistically significant | Effect on corneal neovascularization score (in words) ([2]; listed as Mitomycin): reduced neovascularization score, with significant reductions on day 17 | Effect on corneal neovascularization score (in words) ([2]; listed as mitomycin): reduced the neovascularization on cornea and the reduction was significant comparing levels on day 17 vs the baseline on day 7

COC(=O)c1ccc2c(c1)NC(=O)/C2=C(\Nc1ccc(N(C)C(=O)CN2CCN(C)CC2)cc1)c1ccccc1 [Nintedanib, Methyl (3Z)-3-{[(4-{methyl[(4-methylpiperazin-1-yl)acetyl]amino}phenyl)amino] (phenyl)methylidene}-2-oxo-2,3-dihydro-1H-indole-6-carboxylate]
Effect on pterygium lesion area on mouse cornea (in words) [1]: led to a reduction of the pterygium area on day 14 and day 17 in comparison to the baseline level on day 7; also recorded: reduced pterygium lesion area on mouse cornea | Neovascular Area [3, 6]: 5.97 mm^2 | Neovascular Area Mean Percent Change over Day 7 Baseline (− sign indicates decrease) [3, 6]: 64.08% | Neovascular Area [3, 7]: 5.03 mm^2 | Neovascular Area Mean Percent Change over Day 7 Baseline (− sign indicates decrease) [3, 7]: 45.56% | Neovascular Area [3, 8]: 7.20 mm^2 | Neovascular Area Mean Percent Change over Day 7 Baseline (− sign indicates decrease) [3, 8]: 99.48% | Neovascular Area [3, 9]: 3.23 mm^2 | Neovascular Area Mean Percent Change over Day 7 Baseline (− sign indicates decrease) [3, 9]: 1.99% | Neovascular Area [3, 10]: 2.14 mm^2 | Neovascular Area Mean Percent Change over Day 7 Baseline (− sign indicates decrease) [3, 10]: −27.87% | Neovascular Area [3, 11]: 4.01 mm^2 | Neovascular Area Mean Percent Change over Day 7 Baseline (− sign indicates decrease) [3, 11]: 32.66% | Neovascular Area [3, 12]: 3.32 mm^2 | Neovascular Area Mean Percent Change over Day 7 Baseline (− sign indicates decrease) [3, 12]: 12.09% | Neovascular Area [3, 13]: 4.15 mm^2 | Neovascular Area Mean Percent Change over Day 7 Baseline (− sign indicates decrease) [3, 13]: 37.15% | Neovascular Area [3, 14]: 5.44 mm^2 | Neovascular Area Mean Percent Change over Day 7 Baseline (− sign indicates decrease) [3, 14]: 73.51% | Neovascular Area [3, 15]: 2.48 mm^2 | Neovascular Area Mean Percent Change over Day 7 Baseline (− sign indicates decrease) [3, 15]: −16.84% | Neovascular Area [3, 16]: 2.56 mm^2 | Neovascular Area Mean Percent Change over Day 7 Baseline (− sign indicates decrease) [3, 16]: −13.80% | Neovascular Area [3, 17]: 2.88 mm^2 | Neovascular Area Mean Percent Change over Day 7 Baseline (− sign indicates decrease) [3, 17]: −1.51% | Effect on suture-induced neovascularization in the rabbit cornea (in words) ([3]; 0.2% or 0.05% topical, BID or TID, days 8 to 15): marked inhibitory effect on suture-induced neovascularization in the rabbit cornea | Effect on corneal neovascularization score (in words) [2]: reduced neovascularization score on the cornea during the treatments with the level on day 17 showing a significant difference from the baseline on day 7 | Effect on corneal neovascularization score (in words) ([2]; listed as nintedanib): reduced the neovascularization on cornea and the reduction was significant comparing levels on day 17 vs the baseline on day 7 | Potential toxicity: abnormal lens with incomplete lenticular opacity [4]: none was observed

CCN(CC)CCNC(=O)c1c(C)[nH]c(/C=C2\C(=O)Nc3ccc(F)cc32)c1C [Sunitinib]
Neovascular Area [3, 9]: 3.58 mm^2 | Neovascular Area Mean Percent Change over Day 7 Baseline (− sign indicates decrease) [3, 9]: 10.80% | Neovascular Area [3, 10]: 4.62 mm^2 | Neovascular Area Mean Percent Change over Day 7 Baseline (− sign indicates decrease) [3, 10]: 49.72% | Neovascular Area [3, 11]: 5.96 mm^2 | Neovascular Area Mean Percent Change over Day 7 Baseline (− sign indicates decrease) [3, 11]: 98.38% | Potential toxicity: abnormal lens with incomplete lenticular opacity [4]: abnormal lens with incomplete lenticular opacity was observed in one rabbit | Anterior chamber cellular reaction [5]: an anterior chamber cellular reaction was observed on day 1 | Iris surface staining (drug deposits) [5]: Iris surface yellowish staining, which represents sunitinib deposits on the iris surface was observed during the whole dosing period
